Assays:
[1] = Pharmacokinetics of sofosbuvir and ledipasvir alone or in combination; assay type: in vivo; set-up: AUC(0-inf): concentration or dose not given beside the values; settings: for AUC(0-inf): plasma
[2] = Ledipasvir single-dose PK by concomitant food intake status; assay type: in vivo; settings: for CL/F: Ledipasvir 30 mg single dose, N = 8, mean
[3] = Compatibility/stability of sofosbuvir and ledipasvir:copovidone solid dispersion blend; assay type: physicochemical; settings: for Strength / Total Impurity Content: blend pellets, open glass vials
Description: The compatibility of sofosbuvir anhydrous crystalline drug substance was evaluated with the ledipasvir:copovidone solid dispersion. A blend of the sofosbuvir and ledipasvir:copovidone (1:1) solid dispersion was prepared at a ratio representative of the final 400 mg sofosbuvir/90 mg ledipasvir tablets. […]

[4] = pH-solubility profile and solubility in simulated intestinal media; assay type: physicochemical
Description: Excess solid ledipasvir was added to a range of pH-adjusted aqueous solutions (titrated with HCl or NaOH) and stirred for 48 hours at room temperature. The suspensions were then filtered through regenerated cellulose syringe filters. The pH value of the supernatant was measured, and the supernatant was diluted as appropriate with 50:50 H2O+0.1% TFA:ACN and assayed for ledipasvir content by the HPLC-UV method.
Solubility of ledipasvir amorphous free base was assessed in three types of simulated intestinal fluids at pH 6.5 or pH 5.0; and simulated intestinal bile salt and lecithin mixture (SIBLM), pH 6.4. Excess solid ledipasvir was added to the respective SIFs and stirred for 48 hours at room temperature. The resulting suspensions were then filtered through regenerated cellulose syringe filters. The supernatant was diluted as appropriate with 50:50 H2O+0.1% TFA:ACN and assayed for ledipasvir content by the HPLC-UV method.

[5] = test system: HCV; experiment: Dose selection: antiviral response and Emax PK/PD modeling; assay type: in vivo, Hepatitis C virus; settings: for breakthrough (BT) rate: in combination with other therapeutic agents
Description: The sofosbuvir dose selected for the tablet formulation is 400 mg once daily. Support for the 400 mg sofosbuvir dose can be derived from Emax PK/PD modeling with early virological and human exposure data which also supports the selection of a 400 mg sofosbuvir dose over others tested.
The mean sofosbuvir major metabolite AUCtau for the 400 mg sofosbuvir dose is associated with approximately 77% of the maximal HCV RNA change from baseline achievable as determined by this model, a value which is on the cusp of the plateau of the exposure-response sigmoidal curve. […] Therefore, given that sofosbuvir exposure with 200 mg tablets appears dose-proportional with single doses up to 1200 mg, doses below 400 mg are expected to yield considerable reductions in the magnitude of HCV RNA change from baseline.
The sofosbuvir dose of 400 mg once daily was associated with higher SVR rates in genotype 1 HCV infected patients as compared to the 200 mg once daily dose when given in conjunction with additional HCV therapeutics for 24 weeks. Safety and tolerability appeared similar across both dose levels. In addition, when sofosbuvir 400 mg once daily plus other HCV therapeutics were given to genotype 2 or 3 HCV infected patients, 100% SVR24 was observed.
The maximum median HCV RNA log 10 reduction was 3 or greater for all cohorts dosed with ≥3 mg of ledipasvir. […] Therefore, 30 mg and 90 mg of ledipasvir were selected as the dose for the formulations described herein.
Therefore, the 90 mg dose of ledipasvir may confer a greater antiviral coverage that prevents viral breakthrough.

[6] = pH-solubility profile and solubility in simulated intestinal media; assay type: physicochemical; remark: listed apart in the source
[7] = PK of Sofosbuvir/Ledipasvir tablets fasted or with meals; settings: for AUC(0-inf) / AUC(0-t) / Cmax: plasma, po, plasma analyte, n = 29, mean (% CV); for AUC(0-inf): AUCinf; for AUC(0-t): AUClast
[8] = Sofosbuvir + Ledipasvir vs single agent alone
[9] = po, plasma analyte, Ledipasvir alone, n = 17, mean (% CV)
[10] = nonlinear least-square regression fit of pH-solubility profile
[11] = Sofosbuvir/Ledipasvir Tablet, Fasted
[12] = Sofosbuvir/Ledipasvir Tablet, High-Calorie/High-Fat Meal
[13] = Sofosbuvir/Ledipasvir Tablet, Moderate-Fat Meal

## COC(=O)N[C@H](C(=O)N1CC2(CC2)C[C@H]1c1ncc(-c2ccc3c(c2)C(F)(F)c2cc(-c4ccc5nc([C@@H]6[C@H]7CC[C@H](C7)N6C(=O)[C@@H](NC(=O)OC)C(C)C)[nH]c5c4)ccc2-3)[nH]1)C(C)C [Ledipasvir, (1-{3-[6-(9,9-difluoro-7-{2-[5-(2-methoxycarbonylamino-3-methyl-butyryl)-5-aza-spiro[2.4]hept-6-yl]-3H-imidazol-4-yl}-9H-fluoren-2-yl)-1H-benzoimidazol-2-yl]-2-aza-bicyclo[2.2.1]heptane-2-carbonyl}-2-methyl-propyl)-carbamic acid methyl ester]
[1]; [8]
  % GMR (90% CI) of AUCinf: 95.7 (92.1, 99.5) %
  % GMR (90% CI) of AUClast: 96.5 (89.9, 104) %
  % GMR (90% CI) of Cmax: 95.5 (91.9, 99.1) %
[1]; [9]
  AUC(0-inf): 11900 ng·h/mL
  Cmax: 375 ng/mL
[1]; po, plasma analyte, Sofosbuvir + Ledipasvir, n = 17, mean (% CV)
  AUC(0-inf): 11400 ng·h/mL
[2]; Ledipasvir 30 mg
  AUCinf GLSM Ratio (Fed/Fasted): 55.55%
  AUClast GLSM Ratio (Fed/Fasted): 56.71%
  Cmax GLSM Ratio (Fed/Fasted): 54.90%
[2]; fasted
  CL/F: 17,034.5 mL/h
[2]; fed (high-fat meal)
  CL/F: 26,917.9 mL/h
[2]; high-fat meal vs fasted, 30 mg
  decrease each in mean Cmax, AUClast, and AUCinf: approximately 45%
[2]; ledipasvir alone in a conventional formulation
  decrease in exposure with a high-fat meal relative to fasted state: roughly 2 fold
[3]; 40° C./75% RH and 60° C./ambient humidity, two and four weeks
  degradation in blend with the other active: no degradation was observed
[3]; 45° C./75% RH, 0 weeks
  Strength: 98.8%
  Total Impurity Content: 0.0%
[3]; 45° C./75% RH, 2 weeks
  Strength: 96.9%
  Total Impurity Content: 0.0%
[3]; 45° C./75% RH, 4 weeks
  Strength: 97.1%
  Total Impurity Content: 0.0%
[3]; 60° C., 0 weeks
  Strength: 98.8%
  Total Impurity Content: 0.0%
[3]; 60° C., 1 week
  Strength: 99.2%
  Total Impurity Content: 0.0%
[3]; 60° C., 2 weeks
  Strength: 99.6%
  Total Impurity Content: 0.0%
[3]; 60° C., 4 weeks
  Strength: 98.9%
  Total Impurity Content: 0.0%
[4]
  BCS classification: BCS Class 2
[4]; [10]
  pKa1: 5.0
  pKa2: 4.0
[5]; 30 mg dose, genotype 1a HCV infected patients
  share of maximal antiviral response (Emax PK/PD model): > 95%
[5]; 30 mg, 11/33
  breakthrough (BT) rate: 33%
[5]; 90 mg, 9/74
  breakthrough (BT) rate: 12%
[6]
  permeability: high permeability
[7]; Sofosbuvir/Ledipasvir Tablet
  % GMR (90% CI) [Moderate-Fat/Fasted] of AUCinf: 115 (99.4, 134) %
  % GMR (90% CI) [Moderate-Fat/Fasted] of AUClast: 114 (98.0, 133) %
  % GMR (90% CI) [Moderate-Fat/Fasted] of Cmax: 109 (93.5, 126) %
  GMR (90% CI) [High-Fat/Fasted] of AUCinf: 103 (88.5, 119) %
  GMR (90% CI) [High-Fat/Fasted] of AUClast: 104 (88.8, 121) %
  GMR (90% CI) [High-Fat/Fasted] of Cmax: 88.2 (75.8, 103) %
[7]; [11]
  AUC(0-inf): 10600 ng·h/mL
  AUC(0-t): 8600 ng·h/mL
  Cmax: 324 ng/mL
[7]; [12]
  AUC(0-inf): 9220 ng·h/mL
  AUC(0-t): 7550 ng·h/mL
  Cmax: 255 ng/mL
[7]; [13]
  AUC(0-inf): 10600 ng·h/mL
  AUC(0-t): 8650 ng·h/mL
  Cmax: 319 ng/mL
[7]; sofosbuvir/ledipasvir composition, fed vs fasted
  effect of food on pharmacokinetics: does not appear to be altered by food
